“Also recorded” adds a separate entry of the source.
What was measured:
[1] = target: T1, hNNMT (Homo sapiens, UniProt P40261); test: Isothermal titration calorimetry; assay type: binding
T1 sequence (P40261 1-264): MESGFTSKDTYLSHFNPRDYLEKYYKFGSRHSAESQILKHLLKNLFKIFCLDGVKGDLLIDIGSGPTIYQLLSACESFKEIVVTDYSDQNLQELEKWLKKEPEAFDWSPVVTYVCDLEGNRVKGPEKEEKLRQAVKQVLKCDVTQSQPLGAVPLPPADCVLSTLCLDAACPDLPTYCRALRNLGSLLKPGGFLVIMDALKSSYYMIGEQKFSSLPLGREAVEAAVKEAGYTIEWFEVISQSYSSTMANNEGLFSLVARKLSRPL

[2] = target: T2, PRMT7 (Homo sapiens, UniProt Q9NVM4); test: Selectivity assay, scintillation proximity assay; assay type: biochemical
T2 sequence (Q9NVM4 1-692): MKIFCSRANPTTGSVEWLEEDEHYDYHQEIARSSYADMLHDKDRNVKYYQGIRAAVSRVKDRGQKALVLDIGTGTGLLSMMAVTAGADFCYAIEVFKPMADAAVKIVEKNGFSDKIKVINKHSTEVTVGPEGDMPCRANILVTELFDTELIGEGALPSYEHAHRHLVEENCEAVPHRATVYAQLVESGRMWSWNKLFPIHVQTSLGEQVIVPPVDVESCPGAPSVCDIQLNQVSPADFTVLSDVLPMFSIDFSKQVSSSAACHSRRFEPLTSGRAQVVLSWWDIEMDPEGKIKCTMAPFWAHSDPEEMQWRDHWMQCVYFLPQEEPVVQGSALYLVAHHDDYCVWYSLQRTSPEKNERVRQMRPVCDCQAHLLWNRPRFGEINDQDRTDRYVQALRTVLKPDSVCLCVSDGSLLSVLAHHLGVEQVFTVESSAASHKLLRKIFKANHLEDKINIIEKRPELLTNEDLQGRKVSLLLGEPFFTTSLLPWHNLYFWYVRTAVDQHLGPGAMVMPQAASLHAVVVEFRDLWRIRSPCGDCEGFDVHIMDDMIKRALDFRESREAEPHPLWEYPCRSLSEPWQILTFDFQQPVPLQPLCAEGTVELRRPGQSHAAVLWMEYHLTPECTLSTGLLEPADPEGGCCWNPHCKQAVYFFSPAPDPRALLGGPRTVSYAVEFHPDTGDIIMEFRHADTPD

[3] = target: T3, BCDIN3D (Homo sapiens, UniProt Q7Z5W3); test: Selectivity assay, scintillation proximity assay; assay type: biochemical
T3 sequence (Q7Z5W3 1-292): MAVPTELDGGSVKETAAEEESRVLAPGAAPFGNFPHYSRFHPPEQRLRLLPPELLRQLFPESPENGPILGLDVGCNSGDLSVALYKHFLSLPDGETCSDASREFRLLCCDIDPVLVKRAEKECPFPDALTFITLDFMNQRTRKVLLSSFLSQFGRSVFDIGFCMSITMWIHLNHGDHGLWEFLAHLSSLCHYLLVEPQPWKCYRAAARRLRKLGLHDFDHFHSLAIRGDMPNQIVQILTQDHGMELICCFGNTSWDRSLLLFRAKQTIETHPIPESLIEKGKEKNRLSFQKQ

[4] = target: DOT1L (Homo sapiens, UniProt Q8TEK3); test: Selectivity assay, filter-based 3H-SAM methyltransferase assay; assay type: biochemical
[5] = target: SMYD2 (Homo sapiens, UniProt Q9NRG4); test: Selectivity assay, scintillation proximity assay; assay type: biochemical
[6] = target: T1, hNNMT; test: SAHH-coupled fluorescent assay of NNMT methyltransferase activity; assay type: biochemical
[7] = substrate: NC(=O)c1cccnc1; test: purified protein, by the assay type; conditions: other: SAHH-coupled assay; kcat 4.1 ± 0.2 min^-1; pH 7.5

Chain of DOT1L (Q8TEK3 whole entry, species assumed): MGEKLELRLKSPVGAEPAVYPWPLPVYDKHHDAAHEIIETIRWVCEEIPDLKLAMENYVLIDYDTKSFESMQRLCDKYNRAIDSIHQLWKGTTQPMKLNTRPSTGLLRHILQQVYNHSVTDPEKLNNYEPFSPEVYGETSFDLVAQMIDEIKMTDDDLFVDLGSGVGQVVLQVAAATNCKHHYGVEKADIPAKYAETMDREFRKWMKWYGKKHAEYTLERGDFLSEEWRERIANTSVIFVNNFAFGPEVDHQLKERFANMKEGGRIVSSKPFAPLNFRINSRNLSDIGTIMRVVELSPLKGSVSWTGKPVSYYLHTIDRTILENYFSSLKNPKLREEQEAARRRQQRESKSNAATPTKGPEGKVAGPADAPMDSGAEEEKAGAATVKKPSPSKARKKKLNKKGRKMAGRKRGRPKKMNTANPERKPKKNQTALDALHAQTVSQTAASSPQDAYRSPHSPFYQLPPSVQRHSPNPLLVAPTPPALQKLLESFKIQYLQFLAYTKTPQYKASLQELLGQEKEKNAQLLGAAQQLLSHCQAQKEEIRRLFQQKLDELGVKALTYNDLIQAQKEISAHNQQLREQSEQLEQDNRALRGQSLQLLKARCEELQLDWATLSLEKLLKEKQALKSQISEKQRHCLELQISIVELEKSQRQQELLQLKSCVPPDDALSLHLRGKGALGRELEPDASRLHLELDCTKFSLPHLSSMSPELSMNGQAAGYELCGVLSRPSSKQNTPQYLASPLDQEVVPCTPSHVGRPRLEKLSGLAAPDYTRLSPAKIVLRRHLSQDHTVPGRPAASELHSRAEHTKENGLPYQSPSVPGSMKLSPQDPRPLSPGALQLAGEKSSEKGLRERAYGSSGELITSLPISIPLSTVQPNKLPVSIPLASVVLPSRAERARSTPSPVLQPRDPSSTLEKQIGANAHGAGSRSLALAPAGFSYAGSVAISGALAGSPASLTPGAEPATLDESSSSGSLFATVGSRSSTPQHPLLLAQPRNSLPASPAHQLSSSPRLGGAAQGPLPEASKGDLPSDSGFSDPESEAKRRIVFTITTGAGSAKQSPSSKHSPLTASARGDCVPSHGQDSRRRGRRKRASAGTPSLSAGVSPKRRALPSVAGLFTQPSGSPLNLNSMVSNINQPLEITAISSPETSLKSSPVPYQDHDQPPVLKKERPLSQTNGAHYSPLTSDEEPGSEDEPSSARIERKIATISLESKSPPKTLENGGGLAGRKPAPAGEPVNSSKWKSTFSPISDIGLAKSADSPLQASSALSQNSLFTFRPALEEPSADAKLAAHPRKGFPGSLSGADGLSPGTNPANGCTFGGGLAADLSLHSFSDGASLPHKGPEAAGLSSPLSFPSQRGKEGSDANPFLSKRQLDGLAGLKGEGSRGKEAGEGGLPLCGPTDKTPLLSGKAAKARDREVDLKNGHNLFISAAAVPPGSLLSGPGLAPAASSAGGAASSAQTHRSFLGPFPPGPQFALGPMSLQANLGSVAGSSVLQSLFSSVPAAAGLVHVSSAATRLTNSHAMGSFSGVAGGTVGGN
Chain of SMYD2 (Q9NRG4 whole entry, species assumed): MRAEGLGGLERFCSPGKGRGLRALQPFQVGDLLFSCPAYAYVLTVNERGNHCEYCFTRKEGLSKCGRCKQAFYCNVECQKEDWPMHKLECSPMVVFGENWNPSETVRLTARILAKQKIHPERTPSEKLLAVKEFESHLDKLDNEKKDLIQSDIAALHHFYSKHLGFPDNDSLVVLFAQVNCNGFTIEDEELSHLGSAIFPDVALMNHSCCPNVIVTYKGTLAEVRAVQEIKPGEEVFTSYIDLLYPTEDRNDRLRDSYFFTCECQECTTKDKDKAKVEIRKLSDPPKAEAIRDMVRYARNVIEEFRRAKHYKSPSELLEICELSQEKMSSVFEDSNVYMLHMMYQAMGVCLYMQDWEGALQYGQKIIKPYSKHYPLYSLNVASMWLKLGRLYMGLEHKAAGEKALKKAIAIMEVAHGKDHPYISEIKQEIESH

NC(=O)c1cccnc1 [nicotinamide]
Binding to hNNMT in ITC in the absence of the cofactor ([1]; no cofactor): not observed

NC(=O)c1cccc(CCN(CCC[C@H](N)C(=O)O)C[C@H]2O[C@@H](n3cnc4c(N)ncnc43)[C@H](O)[C@@H]2O)c1 [compound 6, (S)-2-Amino-5-((((2R,3S,4R,5R)-5-(6-amino-9H-purin-9-yl)-3,4-di-hydroxytetrahydrofuran-2-yl)methyl)(3-carbamoylphenethyl)-amino)pentanoic acid]
Hill slope, PRMT7 [2]: 1.1
Hill slope, BCDIN3D [3]: 1.3
Hill slope, DOT1L [4]: 1.1
Hill slope, SMYD2 [5]: 0.6
Mechanism of inhibition with respect to cofactor SAM ([6]; 200 μM nicotinamide, SAM varied 12.5 to 200 μM, Lineweaver-Burk): SAM competitive; also recorded: competitive inhibition
Mechanism of inhibition with respect to substrate nicotinamide ([6]; 250 μM SAM, nicotinamide varied 12.5 to 200 μM, Lineweaver-Burk): noncompetitive inhibition

C[S+](CC[C@H](N)C(=O)O)C[C@H]1O[C@@H](n2cnc3c(N)ncnc32)[C@H](O)[C@@H]1O (stereo partly drawn) [SAM, S-5′-adenosyl-L-methionine, reference compound]
Kd ([1]; read-out: Kd for binding to hNNMT (ITC), 25 °C, 50 mM Tris pH 8.0, 100 mM NaCl): 56.4 ± 9.5 µM
Km ([6]; read-out: Km for NNMT): 24 ± 6.8 µM

B1: hNNMT (Homo sapiens) (protein)
chain: T1 sequence (P40261 1-264)
Km [7]: 20 ± 3 µM
